Reference: patent US6982283B2, “Method for treating drug-induced constipation” (Sucampo AG, priority 2001, dated 2006)
Structures can show the parent of a compound that is named as a salt. Marks after values point to notes of the source that are not given here.

Key:
Format in all cases: in vivo
Male ICR mice [1] = test: Antagonism to imipramine-induced constipation: carbon marker in the caecum
Procedure: Male ICR mice were fasted overnight in wire-bottomed cages to prevent coprophagia, and 10 mice were used for each group. Imipramine hydrochloride (Wako Pure Chemical Industries, Ltd., Osaka, Japan) at 60 mg/kg was injected intraperitoneally to the animals. Immediately after the imipramine-injection, 0.1 mL of carbon marker (10% carbon powder suspension in 5% gum Arabic) and vehicle (physiological saline solution containing 0.01% polysorbate 80 and 0.5% ethanol) or test substance (13,14-dihydro-15-keto-16,16-difluoro-PGE1) in an administration volume of 5 mL/kg were orally administered. A normal control group received carbon marker and vehicle in the above volume orally without the imipramine-injection. One hundred and fifty minutes after the administration of carbon marker, animals were sacrificed by cervical dislocation, and examined the caecum for the presence of carbon marker. It was judged as a positive response when carbon marker was found in the caecum (positive scores).
The effect to the imipramine-induced constipation was evaluated on the cathartic (sennoside) clinically used for the treatment of the constipation in patients. Preparation and dose levels of sennoside were the same as described in example 2. The experimental procedure was the same as described in example 4.

Male ICR mice [2] = test: Effect on analgesic action of morphine: tail-pinch response time
Procedure: Male ICR mice were fasted overnight in wire-bottomed cages to prevent coprophagia. The tail of the animal was pinched with clamp forceps, and the response time from the tail-pinch to fierce striking, biting or crying was measured. 18 mice whose response time of 2 second or shorter were used as test animals. […] Immediately after the morphine-injection, vehicle (physiological saline containing 0.01% polysorbate 80 and 0.5% ethanol) or 1, 10, or 100 μg/kg test substance (13,14-dihydro-15-keto-16,16-difluoro-PGE1) dissolved in the vehicle was administered orally in an administration volume of 5 mL/kg. The animals of normal control group received vehicle orally in the above volume without morphine-injection.
The response time of each animal following tail-pinch was measured 30, 60, 90, 120 and 150 minutes after the administration. If a mouse took longer than 10 seconds to respond, measurement was stopped to avoid injuring the tail tissue, and the response time was recorded as 10 second.

Male ICR mice [3] = test: Antagonism to morphine-induced constipation: graphite marker in the caecum; details: for Effect on morphine-induced constipation: at the clinical daily dosage and at 10 times of the clinical daily dosage
[4] = imipramine 60 mg/kg i.p. + vehicle orally, Example 4, Table 5
[5] = imipramine 60 mg/kg i.p. + vehicle, Example 5, Table 6
[6] = morphine 5 mg/kg i.p. + sodium picosulfate 0.15 mg/kg, 150 min after graphite marker
[7] = morphine 5 mg/kg i.p. + sodium picosulfate 1.5 mg/kg, 150 min after graphite marker
[8] = imipramine 60 mg/kg i.p. + test substance 10 μg/kg orally, 150 min after carbon marker
[9] = imipramine 60 mg/kg i.p. + test substance 100 μg/kg orally, 150 min after carbon marker
[10] = imipramine 60 mg/kg i.p. + sennoside 0.48 μg/kg, 150 min after carbon marker
[11] = imipramine 60 mg/kg i.p. + sennoside 4.8 μg/kg, 150 min after carbon marker
[12] = morphine 5 mg/kg i.p. + sennoside 0.48 mg/kg, 150 min after graphite marker
[13] = morphine 5 mg/kg i.p. + sennoside 4.8 mg/kg, 150 min after graphite marker

## CN(C)CCCN1c2ccccc2CCc2ccccc21 [Imipramine, Imipramine hydrochloride]
Male ICR mice [1]; [4]
  Number of animals with positive scores/Number of animals tested: 1/10
  Ratio of animals with positive scores: 10%
Male ICR mice [1]; [5]
  Number of animals with positive scores/Number of animals tested: 1/10
  Ratio of animals with positive scores: 10%

## CN1CC[C@]23c4c5ccc(O)c4O[C@H]2[C@@H](O)C=C[C@H]3[C@H]1C5.Cl [Morphine, Morphine hydrochloride, reference compound]
Male ICR mice [2]; morphine 5 mg/kg i.p. + vehicle orally, 30 min after administration
  Response time, mean ± S.E.: 2.8 ± 0.6 s
Male ICR mice [2]; morphine 5 mg/kg i.p. + vehicle orally, 60 min after administration
  Response time, mean ± S.E.: 1.9 ± 0.3 s
Male ICR mice [2]; morphine 5 mg/kg i.p. + vehicle orally, 90 min after administration
  Response time, mean ± S.E.: 1.8 ± 0.4^+ sec.
Male ICR mice [2]; morphine 5 mg/kg i.p. + vehicle orally, 120 min after administration
  Response time, mean ± S.E.: 1.4 ± 0.2 s
Male ICR mice [2]; morphine 5 mg/kg i.p. + vehicle orally, 150 min after administration
  Response time, mean ± S.E.: 1.2 ± 0.1 s
Male ICR mice [2]; morphine 5 mg/kg i.p. + vehicle orally, before administration
  Response time, mean ± S.E.: 1.0 ± 0.1 s
Male ICR mice [3]; morphine 5 mg/kg i.p. + vehicle (0.5% tragacanth solution), Example 2, Table 2
  Number of animals with positive scores/Number of animals tested: 2/10
Male ICR mice [3]; morphine 5 mg/kg i.p. + vehicle (physiological saline), Example 2, Table 3
  Number of animals with positive scores/Number of animals tested: 3/10
Male ICR mice [3]; morphine 5 mg/kg i.p. + vehicle (saline, 0.01% polysorbate 80, 0.5% ethanol) orally, Example 1, Table 1
  Number of animals with positive scores/Number of animals tested: 3
Male ICR mice [3]; morphine 5 mg/kg i.p. + vehicle (saline, 0.01% polysorbate 80, 0.5% ethanol) orally, Example 1, Table 1, hydrochloride
  Number of animals with positive scores/Number of animals tested: 3/15

## O=S(=O)(O)Oc1ccc(C(c2ccc(OS(=O)(=O)O)cc2)c2ccccn2)cc1 [sodium picosulfate, Sodium picosulfate]
Male ICR mice [3]
  Effect on morphine-induced constipation: no effect
Male ICR mice [3]; [6]
  Number of animals with positive scores/Number of animals tested: 3/10
  Ratio of animals with positive scores: 30%
Male ICR mice [3]; [7]
  Number of animals with positive scores/Number of animals tested: 4/10
  Ratio of animals with positive scores: 40%

## CCCCC(F)(F)C(=O)CCC1C(O)CC(=O)C1CCCCCCC(=O)O (centres unmarked) [test substance, 13,14-dihydro-15-keto-16,16-difluoro-PGE1]
Male ICR mice [1]; [8]
  Number of animals with positive scores/Number of animals tested: 3/10
  Ratio of animals with positive scores: 30%
Male ICR mice [1]; [9]
  Number of animals with positive scores/Number of animals tested: 7/10**
  Ratio of animals with positive scores: 70%
Male ICR mice [2]; morphine 5 mg/kg i.p. + test substance 1 μg/kg orally, 30 min after administration
  Response time, mean ± S.E.: 3.2 ± 0.7 s
Male ICR mice [2]; morphine 5 mg/kg i.p. + test substance 1 μg/kg orally, 60 min after administration
  Response time, mean ± S.E.: 2.3 ± 0.6^+ sec.
Male ICR mice [2]; morphine 5 mg/kg i.p. + test substance 1 μg/kg orally, 90 min after administration
  Response time, mean ± S.E.: 1.5 ± 0.2 s
Male ICR mice [2]; morphine 5 mg/kg i.p. + test substance 1 μg/kg orally, 120 min after administration
  Response time, mean ± S.E.: 1.3 ± 0.1 s
Male ICR mice [2]; morphine 5 mg/kg i.p. + test substance 1 μg/kg orally, 150 min after administration
  Response time, mean ± S.E.: 1.3 ± 0.1 s
Male ICR mice [2]; morphine 5 mg/kg i.p. + test substance 1 μg/kg orally, before administration
  Response time, mean ± S.E.: 1.0 ± 0.1 s
Male ICR mice [2]; morphine 5 mg/kg i.p. + test substance 10 μg/kg orally, 30 min after administration
  Response time, mean ± S.E.: 3.4 ± 0.5 s
Male ICR mice [2]; morphine 5 mg/kg i.p. + test substance 10 μg/kg orally, 60 min after administration
  Response time, mean ± S.E.: 1.8 ± 0.2 s
Male ICR mice [2]; morphine 5 mg/kg i.p. + test substance 10 μg/kg orally, 90 min after administration
  Response time, mean ± S.E.: 1.4 ± 0.1 s
Male ICR mice [2]; morphine 5 mg/kg i.p. + test substance 10 μg/kg orally, 120 min after administration
  Response time, mean ± S.E.: 1.3 ± 0.1 s
Male ICR mice [2]; morphine 5 mg/kg i.p. + test substance 10 μg/kg orally, 150 min after administration
  Response time, mean ± S.E.: 1.2 ± 0.1 s
Male ICR mice [2]; morphine 5 mg/kg i.p. + test substance 10 μg/kg orally, before administration
  Response time, mean ± S.E.: 1.0 ± 0.1 s
Male ICR mice [2]; morphine 5 mg/kg i.p. + test substance 100 μg/kg orally, 30 min after administration
  Response time, mean ± S.E.: 2.9 ± 0.6 s
Male ICR mice [2]; morphine 5 mg/kg i.p. + test substance 100 μg/kg orally, 60 min after administration
  Response time, mean ± S.E.: 1.8 ± 0.3 s
Male ICR mice [2]; morphine 5 mg/kg i.p. + test substance 100 μg/kg orally, 90 min after administration
  Response time, mean ± S.E.: 1.5 ± 0.1 s
Male ICR mice [2]; morphine 5 mg/kg i.p. + test substance 100 μg/kg orally, 120 min after administration
  Response time, mean ± S.E.: 1.2 ± 0.1 s
Male ICR mice [2]; morphine 5 mg/kg i.p. + test substance 100 μg/kg orally, 150 min after administration
  Response time, mean ± S.E.: 1.3 ± 0.1 s
Male ICR mice [2]; morphine 5 mg/kg i.p. + test substance 100 μg/kg orally, before administration
  Response time, mean ± S.E.: 1.0 ± 0.1 s
Male ICR mice [2]; test substance 1, 10 or 100 μg/kg orally, compared with morphine+vehicle group
  Effect on the analgesic action of morphine: did not affect
Male ICR mice [3]; morphine 5 mg/kg i.p. + test substance 1 μg/kg orally, 150 min after graphite marker
  Ratio of animals with positive scores: 60%
Male ICR mice [3]; morphine 5 mg/kg i.p. + test substance 10 μg/kg orally, 150 min after graphite marker
  Ratio of animals with positive scores: 87%
Male ICR mice [3]; morphine 5 mg/kg i.p. + test substance 100 μg/kg orally, 150 min after graphite marker
  Ratio of animals with positive scores: 93%
Male ICR mice [3]; test substance 1, 10 or 100 μg/kg orally immediately after morphine
  Antagonism of morphine-induced constipation compared with control (morphine+vehicle) group: significantly antagonized

## Sennoside
Male ICR mice [1]; Example 5, results of Table 6
  Effect on the imipramine-induced constipation: no effect
Male ICR mice [1]; [10]
  Number of animals with positive scores/Number of animals tested: 2/10
  Ratio of animals with positive scores: 20%
Male ICR mice [1]; [11]
  Number of animals with positive scores/Number of animals tested: 2/10
  Ratio of animals with positive scores: 20%
Male ICR mice [3]
  Effect on morphine-induced constipation: no effect
Male ICR mice [3]; [12]
  Number of animals with positive scores/Number of animals tested: 2/10
  Ratio of animals with positive scores: 20%
Male ICR mice [3]; [13]
  Number of animals with positive scores/Number of animals tested: 2/10
  Ratio of animals with positive scores: 20%
